Data reported in patent US10520504B2, “Fluorescent polybranched probes for detecting bacteria and/or fungi in vitro and in vivo” (priority 2014, dated 2019).
“Also recorded” adds a separate entry of the source. Numbered stars: 1 amine (or outer) side, 2 acyl side, 3 side chain; on linkers, the order of the positions; unused ones are H or OH. Bridge positions count the residues as written; N and C are the ends. Square brackets hold non-standard residues; d marks the D form. Ends that are not written are not given here. Peptide text beside a SMILES is read from it. I, II: the chains in the order shown. * marks the point of attachment. ξ: configuration not given here. X2 = CN(C)c1ccc2c(c1)Oc1cc(N(C)C)ccc1C21OC(=O)c2ccc(C(=O)*)cc21; X1 = NC(=O)NC(COCCCN[*:1])(COCCCN[*:2])COCCCN[*:3]; NBD = O=[N+]([O-])c1ccc(*)c2nonc12; dDab = NCC[C@@H](N)C(=O)O; Nle = CCCC[C@H](N)C(=O)O; Dab = NCC[C@H](N)C(=O)O; AEEA = NCCOCCOCC(=O)O; ξDab = NCCC(N)C(=O)O; ξK = NCCCCC(N)C(=O)O; ξV = CC(C)C(N)C(=O)O; Ahx = NCCCCCC(=O)O; ξP = O=C(O)C1CCCN1; ξA = CC(N)C(=O)O

Key:
[1] = Stability in saline or ALI BALF by MALDI-TOF MS / FTMS; conditions: incubated 30 minutes
Experimental: Secondly we assessed stability of the probes in BALF from patients with ALI by FTMS and MALDI-TOF MS analysis. NBD-UBINle, NBD-UBIdend and NBD-PMX were incubated for 30 minutes with BALF (FIG. 13).
In vitro labelling was assessed on benchtop confocal in the presence of compound with bacteria and labelling was compared to NBD-UBINle which served as a reference control for bacterial labelling. […] For the ex vivo and in vivo ovine lung experiments each compound was assessed in a control lung segment (instilled with 2 ml PBS) or a bacterial segment (instilled with 2 ml of 2 optical density of bacteria). Following bacterial instillation, the compound was administered to the segment of interest and this was imaged by probe based FCFM.
Probe was added to saline or pooled BALF from patients with ALI incubated for 30 minutes. A ZipTip (C-18, 0.2 μL) with 5 μL MeCN (with 0.1% TFA as an additive) followed by 20 μL of H2O was washed. The ZipTip was loaded with the sample, washed and eluted into 5 μL of 80% aq. MeCN (with 0.1% TFA as an additive). The sample was analysed by MALDI-TOF (PerSeptive Biosystems Voyager DE™STR MALDI-TOF mass spectrometer (Applied Biosystems, Foster City, Calif.)).

[2] = target: T1, human neutrophil elastase (HNE) (Homo sapiens, UniProt P08246); test: Elastase dependent bacterial labelling in co-culture of bacteria and neutrophils; assay type: cell-based; conditions: for labelling of activated neutrophils: TAMRA signal; for elastase dependent bacterial labelling: bacteria with neutrophils
T1 construct: endogenous in cells; host or cells: isolated human neutrophils (co-culture with MSSA or P. aeruginosa)
T1 sequence (P08246 30-267): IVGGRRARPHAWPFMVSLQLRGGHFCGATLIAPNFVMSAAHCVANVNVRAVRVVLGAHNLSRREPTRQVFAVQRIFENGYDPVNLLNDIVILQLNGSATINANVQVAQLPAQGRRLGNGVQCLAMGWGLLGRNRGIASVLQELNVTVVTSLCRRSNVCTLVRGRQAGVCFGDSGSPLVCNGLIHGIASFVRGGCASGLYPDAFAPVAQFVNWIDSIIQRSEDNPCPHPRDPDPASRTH
From the text: A first example of elastase sensitive probes (shown schematically in FIG. 16A) comprises methyl red (acting as a dark quencher) connected via the peptide sequence AAPV (SEQ. ID NO: 9). (acting as the enzyme cleavable peptide sequence of the cleavable linker) to 7-nitrobenz-2-oxa-1,3-diazole (NBD) and the ubiquicidin fragment UBI29-41 (together acting as the probe element). Accordingly, the NBD fluorescence is quenched by the methyl red and no fluorescent signal will be observed (i.e. the methyl red and NBD are acting as a FRET pair) and therefore, whether or not the probe is bound to any bacteria that may be present in the target area via UBI29-41, no signal is observed using confocal microscopy.
When the probe is in the presence of human neutrophil elastase (HNE), such as in inflamed tissue, HNE cleaves the peptide sequence of the linker, to thereby free the probe element from the methyl red quencher. Accordingly, the NBD fluorophore is no longer quenched and produces a fluorescent signal. In addition, due to the environmental sensitivity of the NBD, the signal produced is greatly amplified if the NBD is in a hydrophobic environment, such as within a cell membrane.

elastase = elastase (Homo sapiens, UniProt P08246); conditions: ex 525 nm, Em 580 nm

## CCCC[C@H](NC(=O)[C@H](CCCNC(=N)N)NC(=O)[C@H](CCCNC(=N)N)NC(=O)[C@H](CCCCN)NC(=O)[C@H](C)NC(=O)[C@H](CCCNC(=N)N)NC(=O)CNC(=O)[C@@H](NC(=O)CCCCCNc1ccc([N+](=O)[O-])c2nonc12)[C@@H](C)O)C(=O)N[C@@H](CCC(N)=O)C(=O)N[C@@H](Cc1ccc(O)cc1)C(=O)N[C@@H](CC(N)=O)C(=O)N[C@@H](CCCNC(=N)N)C(=O)N[C@@H](CCCNC(=N)N)C(N)=O [NBD-UBINle] ({NBD-Ahx}-TGRAKRR[Nle]QYNRR-NH2; N-terminus and C-terminus assumed)
[1]
  stability in BALF from patients with ALI: degradation; also recorded: instability in lavage fluid

## CC(C)C[C@H]1NC(=O)[C@@H](Cc2ccccc2)NC(=O)[C@@H](CCN)NC(=O)C(NC(=O)[C@H](CCN)NC(=O)[C@@H](NC(=O)COCCOCCNC(=O)C(CCCCNc2ccc([N+](=O)[O-])c3nonc23)NC(=O)C(NC(=O)C2CCCN2C(=O)C(C)NC(=O)C(C)NC(=O)c2ccc3c(c2)C2(OC3=O)c3ccc(N(C)C)cc3Oc3cc(N(C)C)ccc32)C(C)C)[C@@H](C)O)CCNC(=O)[C@@H]([C@H](C)O)NC(=O)[C@H](CCN)NC(=O)[C@H](CCN)NC1=O (stereo partly drawn) [TAMRA-AAPV-NBD-PMX] (X2-[ξA][ξA][ξP][ξV][ξK](NBD)[AEEA]T[Dab][ξDab][dDab][dF][dL][Dab][Dab][dT]; lactam 9-C)
[2]; P. aeruginosa
  bacterial labelling with unactivated neutrophils: no labelling in the presence of unactivated neutrophils
[2]
  labelling of activated neutrophils: labelling of activated neutrophils in an elastase independent manner
  elastase dependent bacterial labelling: bacterial labelling in an elastase dependent manner
[2]; listed as Example 2
  labelling of activated neutrophils: labelled by the TAMRA moiety
  elastase dependent bacterial labelling: the bacteria are labelled by the probe element
elastase
  TAMRA fluorescence increase with elastase inhibitor: inhibited with an elastase inhibitor
elastase; elastase
  fluorescence of TAMRA following cleavage: increase in fluorescence

## Example 1: methyl red dark quencher connected via AAPV to NBD and ubiquicidin fragment UBI29-41 (also: methyl red quencher attached, side not given here, NBD and ubiquicidin fragment UBI29-41 attached, side not given here)
[2]
  elastase dependent bacterial labelling: cleaved by neutrophil derived HNE and to label bacteria
[2]; sivelestat added to the medium
  bacterial labelling with elastase inhibitor: no labelling was observed

## I: {NBD-AEEA}-TGRAKRR[Nle]QYNRR[AEEA] / II: {NBD-AEEA}-TGRAKRR[Nle]QYNRR[AEEA] / III: {NBD-AEEA}-TGRAKRR[Nle]QYNRR[AEEA] (linker I:C-II:C-III:C via X1) [NBD-UBIdend]
[1]
  stability in BALF from patients with ALI: remains stable; also recorded: demonstrate stability
